How the values were obtained:
5-HT4 receptor [1] = biological target: T1, 5-HT4 receptor (Homo sapiens, UniProt Q13639); assay: [3H]-GR113808 radioligand displacement at two concentrations; assay type: binding; conditions: read-out: 5-HT4R (1 × 10^-6 M)
T1 construct: gene HTR4

5-HT4 receptor [2] = biological target: T1, 5-HT4 receptor; assay: [3H]-GR113808 radioligand displacement at two concentrations; partial agonist reference in cAMP assay; assay type: binding; conditions: read-out: 5-HT4R (1 × 10^-6 M)
[3] = biological target: T2, HA-tagged human 5-HT4 receptor (Homo sapiens, UniProt Q13639); assay: cell-based; set-up: cAMP production by HTRF in transiently transfected COS-7 cells, 10 min, with RO-20-1724; conditions: COS-7; read-out: Top AMPc
T2 construct: gene HTR4; HA-tagged, transiently expressed in COS-7 cells
T2 sequence (Q13639 whole entry): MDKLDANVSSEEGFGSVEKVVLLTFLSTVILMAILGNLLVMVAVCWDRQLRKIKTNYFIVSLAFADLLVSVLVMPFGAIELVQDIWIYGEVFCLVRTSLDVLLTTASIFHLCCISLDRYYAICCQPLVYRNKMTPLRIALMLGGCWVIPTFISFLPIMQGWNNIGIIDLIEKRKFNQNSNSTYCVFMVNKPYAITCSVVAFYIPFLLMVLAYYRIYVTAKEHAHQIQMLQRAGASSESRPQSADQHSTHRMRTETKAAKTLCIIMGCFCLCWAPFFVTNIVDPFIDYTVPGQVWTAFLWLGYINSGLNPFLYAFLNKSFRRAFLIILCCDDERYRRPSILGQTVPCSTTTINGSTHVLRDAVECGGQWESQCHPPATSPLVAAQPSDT
Description: COS-7 cells were purchased from ATCC (ATCC CRL-1651; LGC […], Molsheim, France). They were grown in Dulbecco’s modified Eagle medium (DMEM) supplemented with 10% dialyzed fetal calf serum (dFCS) and antibiotics. The cells were transiently transfected with the plasmid encoding HA-tagged human 5-HT4 receptor, then seeded in 96-wells plate (35,000 cells/well). Approximately 24 hrs after transfection, the cells were washed once with 200 µL of HBS (20 mM HEPES; 150 mM NaCl; 4.2 mM KCl; 0.9 mM CaCl2; 0.5 mM MgCl2; 0.1% glucose; 0.1% BSA) and, after HBS removal, exposed to the indicated concentrations of 5-HT4R ligands in the presence of 0.1 mM of the phosphodiesterase inhibitor RO-20-1724, at 37 °C in 100 µL of HBS. After 10 min, the cells were then lysed by the addition of the same volume of Triton-X100 (0.1%) during 30 min at 37 °C. Quantification of the cAMP production was performed by HTRF by using the cAMP—HTRF Gs Dynamic kit (Perkin Elmer, Codolet, France) according to the manufacturer’s instructions. 2.2.4.

5-HT4 receptor [4] = biological target: T1, 5-HT4 receptor; assay: [3H]-GR113808 radioligand competition, five-point inhibition curves; partial agonist in cAMP HTRF assay; assay type: binding

T1 sequence (Q13639 whole entry): as above

SMILES | inhibition at 1 µM (5-HT4 receptor [1]) [%] | inhibition at 1 µM (5-HT4 receptor [2]) [%] | Emax [3] [%] | Ki (5-HT4 receptor [4]) [nM]
COc1cc(N)c(Cl)cc1C(=O)CCC1CCN(CCOCCNC(=O)c2cc(C(=O)NCCO)cc(C(=O)NCCO)c2)CC1 [compound 19, N^1-(2-(2-(4-(3-(4-amino-5-chloro-2-methoxyphenyl)-3-oxopropyl)piperidin-1-yl)ethoxy)ethyl)-N^3,N^5-bis(2-hydroxyethyl)benzene-1,3,5-tricarboxamide] | 55 | – | – | –
CCCCN1CCC(CCC(=O)c2cc(Cl)c(N)cc2OC)CC1 [RS67333] | – | 100 | 68 | –
COc1cc(N)c(Cl)cc1C(=O)CCC1CCN(CCNC(=O)c2cc(C(=O)NCCO)cc(C(=O)NCCO)c2)CC1 [compound 8, N^1-(2-{4-[3-(4-amino-5-chloro-2-methoxyphenyl)-3-oxopropyl]piperidin-1-yl}ethyl)-N^3,N^5-bis(2-hydroxyethyl)benzene-1,3,5-tricarboxamide] | – | – | 48 | 42.6 ± 4.1
COc1cc(N)c(Cl)cc1C(=O)CCC1CCN(CCCNC(=O)c2cc(C(=O)NCCO)cc(C(=O)NCCO)c2)CC1 [compound 13, N^1-(3-(4-(3-(4-amino-5-chloro-2-methoxyphenyl)-3-oxopropyl)piperidin-1-yl)propyl)-N^3,N^5-bis(2-hydroxyethyl)benzene-1,3,5-tricarboxamide] | 82 | – | – | –
